pIC50: −log10 of the molar value.
Test system: 126254-015-R-J1-PDC complex spheroid growth, % test/control
Assay: Anticancer human tumor 126254-015-R-J1-PDC patient-derived soft tissue sarcoma cell line growth inhibition [Asc]
Settings: for pIC50: curve of first compound; for viability, T/C: stronger effect = lower value; active = viability on the fitted dose curve at most 10% of control; inactive = the rest
Method in brief: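 Concentration series start at each agent's clinical Cmax, or at 10 microM when none is established, and drop in half-log steps; agents are applied alone or together to complex spheroids built with HUVEC and hMSC.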

[1] = second compound 0.01 µM, first compound 0.00316 µM
[2] = second compound 0.01 µM, first compound 0.01 µM
[3] = second compound 0.01 µM, first compound 0.0316 µM
[4] = second compound 0.01 µM, first compound 0.1 µM
[5] = second compound 0.01 µM, first compound 0.316 µM
[6] = second compound 0.01 µM, first compound 1 µM
[7] = second compound 0.0316 µM, first compound 0.00316 µM
[8] = second compound 0.0316 µM, first compound 0.01 µM
[9] = second compound 0.0316 µM, first compound 0.0316 µM
[10] = second compound 0.0316 µM, first compound 0.1 µM
[11] = second compound 0.0316 µM, first compound 0.316 µM
[12] = second compound 0.0316 µM, first compound 1 µM
[13] = second compound 0.1 µM, first compound 0.00316 µM
[14] = second compound 0.1 µM, first compound 0.01 µM
[15] = second compound 0.1 µM, first compound 0.0316 µM
[16] = second compound 0.1 µM, first compound 0.1 µM
[17] = second compound 0.1 µM, first compound 0.316 µM
[18] = second compound 0.1 µM, first compound 1 µM
[19] = second compound 0.316 µM, first compound 0.00316 µM
[20] = second compound 0.316 µM, first compound 0.01 µM
[21] = second compound 0.316 µM, first compound 0.0316 µM
[22] = second compound 0.316 µM, first compound 0.1 µM
[23] = second compound 0.316 µM, first compound 0.316 µM
[24] = second compound 0.316 µM, first compound 1 µM
[25] = second compound 1 µM, first compound 0.00316 µM
[26] = second compound 1 µM, first compound 0.01 µM
[27] = second compound 1 µM, first compound 0.0316 µM
[28] = second compound 1 µM, first compound 0.1 µM
[29] = second compound 1 µM, first compound 0.316 µM
[30] = second compound 1 µM, first compound 1 µM
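Note: spheroids exposed to compound for seven days.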
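Throughout, for viability, T/C: 100% = DMSO vehicle control wells.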

CCN1CCN(Cc2ccc(Nc3ncc(F)c(-c4cc(F)c5nc(C)n(C(C)C)c5c4)n3)nc2)CC1 + CNC(C)C(=O)NC1CN(S(=O)(=O)c2cccc(S(=O)(=O)N3CCC4CCC(C(=O)NC(c5ccccc5)c5ccccc5)N4C(=O)C(NC(=O)C(C)NC)C3)c2)CCC2CCC(C(=O)NC(c3ccccc3)c3ccccc3)N2C1=O
< 6.00: pIC50 (second compound 0.01 µM) | pIC50 (second compound 0.0316 µM) | pIC50 (second compound 0.1 µM) | pIC50 (second compound 0.316 µM) | pIC50 (second compound 1 µM)
inactive: viability, T/C [1] 94.4% | viability, T/C [2] 96.4% | viability, T/C [3] 91.5% | viability, T/C [4] 82.5% | viability, T/C [5] 97% | viability, T/C [6] 91.6% | viability, T/C [7] 71% | viability, T/C [8] 74.4% | viability, T/C [9] 77.8% | viability, T/C [10] 80.1% | viability, T/C [11] 81.7% | viability, T/C [12] 77.6% | viability, T/C [13] 61.4% | viability, T/C [14] 68.7% | viability, T/C [15] 62.9% | viability, T/C [16] 69% | viability, T/C [17] 75.9% | viability, T/C [18] 79.6% | viability, T/C [19] 57.8% | viability, T/C [20] 62.5% | viability, T/C [21] 62.4% | viability, T/C [22] 67.4% | viability, T/C [23] 65.6% | viability, T/C [24] 71.8% | viability, T/C [25] 59.2% | viability, T/C [26] 61.5% | viability, T/C [27] 65% | viability, T/C [28] 52.6% | viability, T/C [29] 57.2% | viability, T/C [30] 60.9%

COc1c(OCCCN2CCOCC2)ccc2c3n(c(=NC(=O)c4cnc(N)nc4)nc12)CCN3 + CNC(C)C(=O)NC1CN(S(=O)(=O)c2cccc(S(=O)(=O)N3CCC4CCC(C(=O)NC(c5ccccc5)c5ccccc5)N4C(=O)C(NC(=O)C(C)NC)C3)c2)CCC2CCC(C(=O)NC(c3ccccc3)c3ccccc3)N2C1=O
7.70: pIC50 (second compound 0.316 µM)
inactive: viability, T/C [1] 84.8% | viability, T/C [2] 82.4% | viability, T/C [3] 57.8% | viability, T/C [4] 37.3% | viability, T/C [5] 20.1% | viability, T/C [6] 12.5% | viability, T/C [7] 74.8% | viability, T/C [8] 73.2% | viability, T/C [9] 60.7% | viability, T/C [10] 36.6% | viability, T/C [11] 19.3% | viability, T/C [12] 11.4% | viability, T/C [13] 66.1% | viability, T/C [14] 63.5% | viability, T/C [15] 47.9% | viability, T/C [16] 36% | viability, T/C [17] 17.5% | viability, T/C [18] 11.2% | viability, T/C [19] 60.8% | viability, T/C [20] 54.6% | viability, T/C [21] 47.8% | viability, T/C [22] 29.1% | viability, T/C [23] 18.2% | viability, T/C [25] 53.7% | viability, T/C [26] 56.6% | viability, T/C [27] 43.6% | viability, T/C [28] 28.3% | viability, T/C [29] 15.6%
active: viability, T/C [24] 9.08% | viability, T/C [30] 9.01%
7.28: pIC50 (second compound 0.01 µM)
7.49: pIC50 (second compound 0.1 µM)
7.27: pIC50 (second compound 0.0316 µM)
7.80: pIC50 (second compound 1 µM)

NC(=O)C(=Cn1cnc(-c2cc(C(F)(F)F)cc(C(F)(F)F)c2)n1)c1cncnc1 + CNC(C)C(=O)NC1CN(S(=O)(=O)c2cccc(S(=O)(=O)N3CCC4CCC(C(=O)NC(c5ccccc5)c5ccccc5)N4C(=O)C(NC(=O)C(C)NC)C3)c2)CCC2CCC(C(=O)NC(c3ccccc3)c3ccccc3)N2C1=O
inactive: viability, T/C (second compound 0.01 µM, first compound 0.000949 µM) 85.8% | viability, T/C (second compound 0.01 µM, first compound 0.003 µM) 87.5% | viability, T/C (second compound 0.01 µM, first compound 0.00949 µM) 73% | viability, T/C (second compound 0.01 µM, first compound 0.03 µM) 64.7% | viability, T/C (second compound 0.01 µM, first compound 0.0949 µM) 41.6% | viability, T/C (second compound 0.0316 µM, first compound 0.000949 µM) 80.4% | viability, T/C (second compound 0.0316 µM, first compound 0.003 µM) 77.7% | viability, T/C (second compound 0.0316 µM, first compound 0.00949 µM) 62.7% | viability, T/C (second compound 0.0316 µM, first compound 0.03 µM) 47.7% | viability, T/C (second compound 0.0316 µM, first compound 0.0949 µM) 25.9% | viability, T/C (second compound 0.1 µM, first compound 0.000949 µM) 58.2% | viability, T/C (second compound 0.1 µM, first compound 0.003 µM) 62.7% | viability, T/C (second compound 0.1 µM, first compound 0.00949 µM) 55.9% | viability, T/C (second compound 0.1 µM, first compound 0.03 µM) 48.9% | viability, T/C (second compound 0.1 µM, first compound 0.0949 µM) 23% | viability, T/C (second compound 0.316 µM, first compound 0.000949 µM) 60% | viability, T/C (second compound 0.316 µM, first compound 0.003 µM) 60.8% | viability, T/C (second compound 0.316 µM, first compound 0.00949 µM) 54.7% | viability, T/C (second compound 0.316 µM, first compound 0.03 µM) 44% | viability, T/C (second compound 0.316 µM, first compound 0.0949 µM) 15.1% | viability, T/C (second compound 1 µM, first compound 0.000949 µM) 51.9% | viability, T/C (second compound 1 µM, first compound 0.003 µM) 57.5% | viability, T/C (second compound 1 µM, first compound 0.00949 µM) 53.4% | viability, T/C (second compound 1 µM, first compound 0.03 µM) 35.8% | viability, T/C (second compound 1 µM, first compound 0.0949 µM) 18.8%
7.21: pIC50 (second compound 0.01 µM)
7.77: pIC50 (second compound 0.316 µM)
active: viability, T/C (second compound 0.01 µM, first compound 0.3 µM) 9.66% | viability, T/C (second compound 0.0316 µM, first compound 0.3 µM) 9% | viability, T/C (second compound 0.1 µM, first compound 0.3 µM) 5.96% | viability, T/C (second compound 0.316 µM, first compound 0.3 µM) 3.45% | viability, T/C (second compound 1 µM, first compound 0.3 µM) 5.88%
7.98: pIC50 (second compound 1 µM)
7.61: pIC50 (second compound 0.0316 µM) | pIC50 (second compound 0.1 µM)

NC1CCC(NC2CC2c2ccccc2)CC1 (stereo not given) + CNC(C)C(=O)NC1CN(S(=O)(=O)c2cccc(S(=O)(=O)N3CCC4CCC(C(=O)NC(c5ccccc5)c5ccccc5)N4C(=O)C(NC(=O)C(C)NC)C3)c2)CCC2CCC(C(=O)NC(c3ccccc3)c3ccccc3)N2C1=O
inactive: viability, T/C (second compound 0.01 µM, first compound 0.000316 µM) 86.3% | viability, T/C (second compound 0.01 µM, first compound 0.001 µM) 89.1% | viability, T/C [1] 87.1% | viability, T/C [2] 75.5% | viability, T/C [3] 80.5% | viability, T/C [4] 75% | viability, T/C (second compound 0.0316 µM, first compound 0.000316 µM) 79.2% | viability, T/C (second compound 0.0316 µM, first compound 0.001 µM) 81.6% | viability, T/C [7] 77.5% | viability, T/C [8] 77.3% | viability, T/C [9] 78.1% | viability, T/C [10] 70.6% | viability, T/C (second compound 0.1 µM, first compound 0.000316 µM) 70.3% | viability, T/C (second compound 0.1 µM, first compound 0.001 µM) 71.3% | viability, T/C [13] 72.2% | viability, T/C [14] 69.6% | viability, T/C [15] 68.8% | viability, T/C [16] 68% | viability, T/C (second compound 0.316 µM, first compound 0.000316 µM) 62.2% | viability, T/C (second compound 0.316 µM, first compound 0.001 µM) 71.6% | viability, T/C [19] 65% | viability, T/C [20] 54.5% | viability, T/C [21] 61.7% | viability, T/C [22] 57.8% | viability, T/C (second compound 1 µM, first compound 0.000316 µM) 49.5% | viability, T/C (second compound 1 µM, first compound 0.001 µM) 56.5% | viability, T/C [25] 54.5% | viability, T/C [26] 50.9% | viability, T/C [27] 53.8% | viability, T/C [28] 53%
< 7.00: pIC50 (second compound 0.01 µM) | pIC50 (second compound 0.0316 µM) | pIC50 (second compound 0.1 µM) | pIC50 (second compound 0.316 µM) | pIC50 (second compound 1 µM)
